The source of these data is PubChem BioAssay AID248 (DTP/NCI, 2004).

Molecules are shown by their SMILES. Several values for one entry are separate records, joined by “and”; a condition that tells them apart may be missing. Equal entries are not always repeated. Inconclusive results and toxic doses are left out.

For the assay, the system named is L1210 leukemia ip in BDF1 mice, survival T/C. The assay is described as follows: NCI In Vivo Anticancer Drug Screen. Data for tumor model L1210 Leukemia (intraperitoneal) in B6D2F1 (BDF1) mice. The settings on record: endpoint: mean survival time, higher = longer survival. Summed up:
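Mice bearing the transplanted tumor received compound or vehicle. Survival of the treated group was divided by that of the vehicle-treated control group to give the ratio.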

Where [1] appears, read: dose: 100.0 mg/kg/injection, schedule: Q01DX001 (ip), vehicle: saline.
The mark [2] stands for this setting: dose: 200.0 mg/kg/injection, schedule: Q01DX001 (ip), vehicle: saline.
Setting [3] is: dose: 400.0 mg/kg/injection, schedule: Q01DX001 (ip), vehicle: saline.
The mark [4] stands for this setting: dose: 50.0 mg/kg/injection, schedule: Q01DX009 (ip), vehicle: Klucel (hydroxypropylcellulose) (HPC).
Setting [5] is: dose: 50.0 mg/kg/injection, schedule: Q04DX003 (ip), vehicle: Klucel (hydroxypropylcellulose) (HPC).
The mark [6] stands for this setting: dose: 100.0 mg/kg/injection, schedule: Q01DX009 (ip), vehicle: Klucel (hydroxypropylcellulose) (HPC).
[7] abbreviates: dose: 100.0 mg/kg/injection, schedule: Q04DX003 (ip), vehicle: Klucel (hydroxypropylcellulose) (HPC).
Where [8] appears, read: dose: 200.0 mg/kg/injection, schedule: Q01DX009 (ip), vehicle: Klucel (hydroxypropylcellulose) (HPC).
[9] abbreviates: dose: 200.0 mg/kg/injection, schedule: Q04DX003 (ip), vehicle: Klucel (hydroxypropylcellulose) (HPC).
Setting [10] is: dose: 400.0 mg/kg/injection, schedule: Q01DX009 (ip), vehicle: Klucel (hydroxypropylcellulose) (HPC).
Setting [11] is: dose: 400.0 mg/kg/injection, schedule: Q04DX003 (ip), vehicle: Klucel (hydroxypropylcellulose) (HPC).
Where [12] appears, read: dose: 100.0 mg/kg/injection, schedule: Q04DX002 (ip), vehicle: Klucel (hydroxypropylcellulose) (HPC).

With `COC(=O)c1cn[nH]c1/N=N/N(C)C`, the T/C reads like this: (dose: 25.0 mg/kg/injection, schedule: Q01DX009 (ip), vehicle: other) 120 % of control; (dose: 58.0 mg/kg/injection, schedule: Q01DX009 (ip), vehicle: other) 156 % of control; (dose: 88.0 mg/kg/injection, schedule: Q01DX009 (ip), vehicle: other) 163 % of control; under setting [1], 107 % of control; (dose: 133.0 mg/kg/injection, schedule: Q01DX009 (ip), vehicle: saline) 155 % of control; under setting [2], 120 % of control. The T/C is, setting by setting: (dose: 200.0 mg/kg/injection, schedule: Q01DX009 (ip), vehicle: saline) 156 % of control; under setting [3], 122 % of control.

On to `NC(=O)c1ccccn1`, for which the T/C under setting [4] was 98 % of control; the T/C under setting [5] is 100 % of control; the T/C under setting [6] is 95 % of control; the T/C under setting [7] is 102 % of control; the T/C under setting [8] is 87 % of control; the T/C under setting [9] is 101 % of control and 102 % of control.

In the case of `ClCCN(CCCl)CCCN1c2ccccc2Sc2ccc(Cl)cc21`, the T/C is 100 % of control (dose: 1.56 mg/kg/injection, schedule: Q01DX009 (ip), vehicle: saline with Tween-80); 105 % of control (dose: 3.12 mg/kg/injection, schedule: Q01DX001 (ip), vehicle: saline with Tween-80); 112 % of control (dose: 3.12 mg/kg/injection, schedule: Q01DX009 (ip), vehicle: saline with Tween-80); 103 % of control (dose: 6.25 mg/kg/injection, schedule: Q01DX001 (ip), vehicle: saline with Tween-80); 110 % of control (dose: 6.25 mg/kg/injection, schedule: Q01DX009 (ip), vehicle: saline with Tween-80); 102 % of control (dose: 6.25 mg/kg/injection, schedule: Q04DX003 (ip), vehicle: saline with Tween-80). In addition, the T/C is, setting by setting: (dose: 12.5 mg/kg/injection, schedule: Q01DX001 (ip), vehicle: saline with Tween-80) 108 % of control; (dose: 12.5 mg/kg/injection, schedule: Q01DX009 (ip), vehicle: saline with Tween-80) 112 % of control; (dose: 12.5 mg/kg/injection, schedule: Q04DX003 (ip), vehicle: saline with Tween-80) 107 % of control; (dose: 25.0 mg/kg/injection, schedule: Q04DX003 (ip), vehicle: saline with Tween-80) 110 % of control; (dose: 50.0 mg/kg/injection, schedule: Q04DX003 (ip), vehicle: saline with Tween-80) 122 % of control.

On to `CC(C)(C)C1CCC(NC(=O)c2ccccc2)CC1` (centres undefined), for which the T/C under setting [6] was 108 % of control; the T/C under setting [7] was 102 % of control; the T/C under setting [8] is 109 % of control; the T/C under setting [9] is 98 % of control; the T/C under setting [10] is 86 % of control; the T/C under setting [11] was 100 % of control.

For `C/C(=C/c1ccc(/C=C(\C)[N+](=O)[O-])cc1)[N+](=O)[O-]`, the T/C (dose: 10.0 mg/kg/injection, schedule: Q01DX001 (ip), vehicle: acetone) was 106 % of control.

As to `CCNC(=O)c1ccc(NC(=O)Nc2ccc(C3=NCCN3)cc2)cc1NC(=O)Nc1ccc(C2=NCCN2)cc1`, the T/C is, setting by setting: (dose: 37.5 mg/kg/injection, schedule: Q01DX015 (ip), vehicle: water) 198 % of control; (dose: 46.0 mg/kg/injection, schedule: Q01DX001 (ip), vehicle: water) 123 % of control; (dose: 50.0 mg/kg/injection, schedule: Q01DX015 (ip), vehicle: water) 163 % of control; (dose: 62.5 mg/kg/injection, schedule: Q01DX Z (ip), vehicle: water) 116 % of control; (dose: 93.0 mg/kg/injection, schedule: Q01DX001 (ip), vehicle: water) 166 % of control and 189 % of control; (dose: 140.0 mg/kg/injection, schedule: Q01DX001 (ip), vehicle: water) 171 % of control and 176 % of control and 193 % of control.

Regarding `O=C(O)/C(=C\CCCC/C=C(\CCO)C(=O)O)CCO`, the T/C by setting is: under setting [6], 102 % of control; under setting [7], 94 % of control; under setting [8], 99 % of control; under setting [9], 102 % of control; under setting [10], 102 % of control; under setting [11], 96 % of control.

For the compound `CCCN1CC(C(=O)OCC)C(=O)C1=O` (centres undefined), the T/C (dose: 50.0 mg/kg/injection, schedule: Q01DX001 (ip), vehicle: saline) is 108 % of control; the T/C under setting [1] was 100 % of control; the T/C under setting [2] is 96 % of control; the T/C under setting [3] was 102 % of control.

Turning to `CC1COCC(C)N1C1=C(Cl)C(=O)c2ccccc2C1=O` (centres undefined), the T/C runs as follows: (dose: 12.5 mg/kg/injection, schedule: Q01DX001 (ip), vehicle: carboxymethylcellulose (CMC)) 98 % of control; (dose: 25.0 mg/kg/injection, schedule: Q01DX001 (ip), vehicle: carboxymethylcellulose (CMC)) 98 % of control.

Turning to `CCOC(=O)/C(C#N)=C1\CCC=C(C)C1`, the T/C reads like this: (dose: 75.0 mg/kg/injection, schedule: Q01DX001 (ip), vehicle: other) 97 % of control; (dose: 150.0 mg/kg/injection, schedule: Q01DX001 (ip), vehicle: other) 102 % of control; (dose: 300.0 mg/kg/injection, schedule: Q01DX001 (ip), vehicle: other) 98 % of control.

Turning to `Oc1ccc(OCc2ccccc2)cc1`, the T/C was 110 % of control (dose: 25.0 mg/kg/injection, schedule: Q01DX009 (ip), vehicle: Klucel (hydroxypropylcellulose) (HPC)); 88 % of control under setting [4]; 100 % of control under setting [6]; 103 % of control (dose: 100.0 mg/kg/injection, schedule: Q04DX003 (ip), vehicle: other); 102 % of control (dose: 200.0 mg/kg/injection, schedule: Q04DX003 (ip), vehicle: other); 93 % of control (dose: 400.0 mg/kg/injection, schedule: Q04DX003 (ip), vehicle: other).

On to `CCC12CCC(=O)NC1Cc1[nH]c3c(OC)cccc3c1C2` (centres undefined), for which the T/C is, setting by setting: (dose: 100.0 mg/kg/injection, schedule: Q01DX009 (ip), vehicle: saline sonified) 93 % of control; (dose: 200.0 mg/kg/injection, schedule: Q01DX009 (ip), vehicle: saline sonified) 91 % of control; (dose: 400.0 mg/kg/injection, schedule: Q01DX009 (ip), vehicle: saline sonified) 91 % of control.

Regarding `CC(=O)c1cccc2ccccc12`, the T/C runs as follows: (dose: 25.0 mg/kg/injection, schedule: Q04DX002 (ip), vehicle: Klucel (hydroxypropylcellulose) (HPC)) 103 % of control; (dose: 50.0 mg/kg/injection, schedule: Q04DX002 (ip), vehicle: Klucel (hydroxypropylcellulose) (HPC)) 100 % of control; under setting [12], 103 % of control.

As to `CN(C)C(=S)[S][Pb]([S]C(=S)N(C)C)([c]1ccccc1)[c]1ccccc1`, the T/C was 114 % of control (dose: 100.0 mg/kg/injection, schedule: Q01DX001 (ip), vehicle: steriod suspending solution); 111 % of control (dose: 200.0 mg/kg/injection, schedule: Q01DX001 (ip), vehicle: steriod suspending solution); 109 % of control (dose: 400.0 mg/kg/injection, schedule: Q01DX001 (ip), vehicle: steriod suspending solution).

On to `CS(=O)(=O)N(c1ccccc1)c1ccccc1[N+](=O)[O-]`, for which the T/C by setting is: (dose: 100.0 mg/kg/injection, schedule: Q01DX001 (ip), vehicle: other) 117 % of control; (dose: 200.0 mg/kg/injection, schedule: Q01DX001 (ip), vehicle: other) 96 % of control; (dose: 400.0 mg/kg/injection, schedule: Q01DX001 (ip), vehicle: other) 111 % of control.

As for `COC(=O)C1=COC(C)C2CN3CCc4c([nH]c5ccccc45)C3CC12` (centres undefined), the T/C was 96 % of control (dose: 25.0 mg/kg/injection, schedule: Q04DX003 (ip), vehicle: Klucel (hydroxypropylcellulose) (HPC)); 98 % of control under setting [5]; 98 % of control and 95 % of control under setting [12]; 98 % of control under setting [7]; 91 % of control and 102 % of control (dose: 200.0 mg/kg/injection, schedule: Q04DX002 (ip), vehicle: Klucel (hydroxypropylcellulose) (HPC)); 95 % of control under setting [9]. The T/C reads like this: (dose: 400.0 mg/kg/injection, schedule: Q04DX002 (ip), vehicle: Klucel (hydroxypropylcellulose) (HPC)) 87 % of control and 106 % of control; under setting [11], 100 % of control.
